From patent US9598396B2, “Tetrahydrophenanthridinones and tetrahydrocyclopentaquinolinones as PARP and tubulin polymerization inhibitors” (Janssen Pharmaceutica NV, priority 2008, dated 2017)

Legend:
Human PARP-1 enzyme = Human PARP-1 enzyme (Homo sapiens (Human), UniProt P09874); assay: In vitro Scintillation Proximity Assay (SPA) for PARP-1 inhibitory activity; assay type: biochemical; details: nicked DNA activated PARP-1, [3H]-NAD+, biotinylated histones
Description: C.1.In Vitro Scintillation Proximity Assay (SPA) for PARP-1 Inhibitory Activity
Compounds of the present invention were tested in an in vitro assay based on SPA technology (proprietary to GE healthcare).
In principle, the assay relies upon the well established SPA technology for the detection of poly(ADP-ribosyl)ation of biotinylated target proteins, i.e histones. This ribosylation is induced using nicked DNA activated PARP-1 enzyme and [^3H]-nicotinamide adenine dinucleotide ([^3H]-NAD^+) as ADP-ribosyl donor.
Histones (type II-A, supplier: Sigma) were biotinylated using the biotinylation kit of Amersham and stored aliquoted at −20° C. A stock solution of 100 mg/ml SPA poly(vinyl toluene) (PVT) beads (supplier: Amersham) was made in PBS. A stock solution of 61.6 nM […] was made by adding [^3H]-NAD^+ (0.1 mCi/ml, supplier: Perkin Elmer) to incubation buffer (50 mM Tris/HCl, pH 8; 0.2 mM DTT; 4 mM MgCl2). A solution of 4 mM NAD^+ (supplier: Sigma) was made. Human PARP-1 enzyme was obtained from Trevigen. Biotinylated histones and PVT-SPA beads were mixed and pre-incubated for 30 minutes at room temperature. PARP-1 enzyme (concentration was lot dependent) was mixed with the nicked DNA and the mixture was pre-incubated for 30 minutes at 4° C. Equal parts of this histones/PVT-SPA beads solution and PARP-1 enzyme/DNA solution were mixed and 75 μl of this mixture together with 1 μl of compound in DMSO and 25 μl of [^3H]-NAD^+was added per well into a 96-well microtiterplate. The final concentrations in the incubation mixture were 2 μg/ml for the biotinylated histones, 2 mg/ml for the PVT-SPA beads, 0.25 μg/ml for the nicked DNA and between 0.1-0.2 μg/ml for the PARP-1 enzyme. After incubation of the mixture for 20 minutes at room temperature, the reaction was terminated by adding 100 μl of 4 mM NAD^+ in water (final concentration 2 mM) and plates were mixed. The beads were sedimented by centrifugation (10 min, 800 rpm) and plates transferred to a TopCountNXT™ (Packard) for scintillation counting, values were expressed as counts per minute (cpm). For each experiment, controls (containing PARP-1 enzyme and DMSO without compound), a blank incubation (containing DMSO but no PARP-1 enzyme, no DNA or compound) and samples (containing PARP-1 enzyme, DNA and compound dissolved in DMSO) were run in parallel. All compounds tested were dissolved and eventually further diluted in DMSO. A dose-response curve was made wherein the compounds were tested at concentrations between 10^−5M and 3×10^−9M. In each test, the blank value was subtracted from both the control and the sample values. The control sample represented maximal PARP-1 enzyme activity. For each sample, the amount of cpm was expressed as a percentage of the mean cpm value of the controls. […] Herein the effects of test compounds are expressed as pIC50 (the negative log value of the IC50-value). As a reference compound, 4-amino-1,8-naphthalimide was included to validate the SPA assay.

TANK-2 enzyme = TANK-2 enzyme (Homo sapiens (Human), UniProt Q9H2K2); assay: In vitro Scintillation Proximity Assay (SPA) for TANK-2 inhibitory activity; assay type: biochemical; details: auto-poly(ADP-ribosyl)ation, [3H]-NAD+, Ni flash plates (96 or 384 well)
Sequence of TANK-2 enzyme (Q9H2K2 whole entry): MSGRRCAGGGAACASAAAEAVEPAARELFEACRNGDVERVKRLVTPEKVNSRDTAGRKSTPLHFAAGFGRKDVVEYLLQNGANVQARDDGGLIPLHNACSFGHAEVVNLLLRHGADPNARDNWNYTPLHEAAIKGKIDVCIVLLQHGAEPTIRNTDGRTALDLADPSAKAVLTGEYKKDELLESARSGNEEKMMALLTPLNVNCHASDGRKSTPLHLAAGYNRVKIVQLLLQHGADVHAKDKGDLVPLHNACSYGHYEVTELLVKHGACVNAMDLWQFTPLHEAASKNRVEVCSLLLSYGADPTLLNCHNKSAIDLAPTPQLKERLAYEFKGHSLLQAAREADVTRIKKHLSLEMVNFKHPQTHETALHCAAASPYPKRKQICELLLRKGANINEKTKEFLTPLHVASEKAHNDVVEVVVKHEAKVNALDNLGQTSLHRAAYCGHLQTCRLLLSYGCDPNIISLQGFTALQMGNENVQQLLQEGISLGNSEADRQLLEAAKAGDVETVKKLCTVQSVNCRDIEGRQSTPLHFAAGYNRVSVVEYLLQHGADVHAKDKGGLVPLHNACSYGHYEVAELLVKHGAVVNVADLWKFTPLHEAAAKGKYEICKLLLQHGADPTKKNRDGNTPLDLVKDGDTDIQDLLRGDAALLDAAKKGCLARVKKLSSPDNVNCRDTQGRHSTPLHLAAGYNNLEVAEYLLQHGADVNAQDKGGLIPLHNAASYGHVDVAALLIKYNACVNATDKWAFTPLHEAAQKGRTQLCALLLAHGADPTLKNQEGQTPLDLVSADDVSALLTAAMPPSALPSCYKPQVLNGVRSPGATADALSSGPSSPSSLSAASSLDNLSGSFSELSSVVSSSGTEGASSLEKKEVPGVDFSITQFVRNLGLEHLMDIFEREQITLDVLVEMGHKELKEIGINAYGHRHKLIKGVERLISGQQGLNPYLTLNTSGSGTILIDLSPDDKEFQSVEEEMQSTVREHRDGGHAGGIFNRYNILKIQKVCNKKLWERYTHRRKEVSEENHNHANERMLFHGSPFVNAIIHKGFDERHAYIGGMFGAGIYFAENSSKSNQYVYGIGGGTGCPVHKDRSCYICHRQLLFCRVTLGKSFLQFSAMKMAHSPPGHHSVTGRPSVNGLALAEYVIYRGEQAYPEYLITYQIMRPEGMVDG
Description: C.2.In Vitro Scintillation Proximity Assay (SPA) for TANK-2 Inhibitory Activity
Compounds of the present invention were tested in an in vitro assay based on SPA technology with Ni Flash plates (96 or 384 well).
In principle, the assay relies upon SPA technology for the detection of auto-poly(ADP-ribosyl)ation of TANK-2 protein using [^3H]-nicotinamide adenine dinucleotide ([^3H]-NAD^+) as ADP-ribosyl donor.
A stock solution of 100 nM [^3H]-NAD^+/NAD (0.1 mCi/ml, supplier: Perkin Elmer) and 25 μM NAD (Sigma) was made in assay buffer (60 mM Tris/HCl, pH 7.4; 0.9 mM DTT; 6 mM MgCl2). The TANK-2 enzyme was produced as described in EP1238063. 60 μl of assay buffer, together with 1 μl of compound in DMSO, 20 μl of [^3H]-NAD^+/NAD and 20 μl of TANK-2 enzyme (final concentration 8 μg/ml) was added per well into a 96-well Ni-coated flash plate (Perkin Elmer). After incubation of the mixture for 120 minutes at room temperature, the reaction was terminated by adding 60 μl of stopsolution (42.6 mg NAD in 6 ml H2O). The plates were covered with a plate sealer and placed in a TopCountNXT™ (Packard) for scintillation counting. Values were expressed as counts per minute (cpm). For each experiment, controls (containing TANK-2 enzyme and DMSO without compound), a blank incubation (containing DMSO but no TANK-2 enzyme or compound) and samples (containing TANK-2 enzyme and compound dissolved in DMSO) were run in parallel. All compounds tested were dissolved and eventually further diluted in DMSO. In first instance, compounds were tested at a concentration of 10^−5M. […] In each test, the blank value was subtracted from both the control and the sample values. The control sample represented maximal TANK-2 enzyme activity. For each sample, the amount of cpm was expressed as a percentage of the mean cpm value of the controls. […] Herein the effects of test compounds are expressed as pIC50 (the negative log value of the IC50-value). As reference compounds, 3-aminobenzamide and 4-amino-1,8-naphtalimide were included to validate the SPA assay. Herein the assay was described using 96-well plates. In the assay using 384-well plates the same final concentrations were used and volumes were adapted.

[1] = tested on: Human colon carcinoma HCT116 cells; assay: Detection of antiproliferative activity (Alamar Blue assay); assay type: cell-based; details: HCT-116, 96 h, 4-day incubation, read-out: Cellular assay HCT116 pIC50 (converted)
Description: Example C.4 Detection of Antiproliferative Activity
Human colon carcinoma HCT116 cells obtained from the ATCC were cultured in McCoy's 5A medium supplemented with 2 mM L-Glutamine, 50 μg/ml gentamicin and 10% heat inactivated fetal calf serum.
Reagents used in the Alamar Blue Assay
Resazurin was purchased from Aldrich (Prod. No. 199303). Potassium ferrocyanide, potassium ferricyanide, KH2PO4 and K2HPO4 were purchased from Sigma (Prod. Nos. P9387, P8131, P5655 and P8281, respectively).
Potassium Phosphate Buffer 0.1 M (PPB) was made as follows: 2.72 gram KH2PO4 and 13.86 gram K2HPO4 were dissolved in 500 ml milli-Q H2O, the pH was adjusted to pH 7.4 and the volume was brought to 1 liter with milli-Q H2O; the buffer was filter sterilised and stored at room temperature. Resazurin stock solution (PPB-A) was prepared fresh by dissolving 45 mg resazurin in 15 ml PBS. 30 mM potassium ferricyanide (PPB-B) was prepared by dissolving 0.987 gram potassium ferricyanide in 100 ml PPB. 30 mM potassium ferrocyanide (PPB-C) was prepared by dissolving 1.266 gram potassium ferrocyanide in 100 ml PPB.
Mixture of PPB-A, PPB-B and PPB-C was prepared by mixing equal volumes of the respective solutions. Resazurin work solution (herein termed “Alamar Blue” solution) was prepared by diluting said mixture 20× (vol/vol) in PPB and filter sterilising; the Alamar Blue solution could be kept at 4° C. for a maximum of 2 weeks.
Procedure of the Alamar Blue Assay
For experiments in 384 wells plates the cells were seeded at a density of 4.5×10^3 cells/ml in Falcon 384-well culture plates (Life Technologies, Merelbeke, Belgium), black with clear bottom, in 45 μl culture medium. Cells were allowed to adhere to plastic for 24 hours. The tested compound was pre-diluted (1/50 in culture medium) and 5 μl pre-diluted compound was added to the wells. Following 4-day incubation, 10 μl of the Alamar Blue solution was added to each well and the cells were further incubated for 4 hours (HCT116) or 24 hours (PC-3) at 37° C. The fluorescence intensity was measured for each well on a Fluorescence plate reader (Fluorskan, Labsystems, 540 nm excitation and 590 nm emission)
The antiproliferative activity was calculated as percentage of remaining viable cells in treated versus control (untreated cells) conditions. Within an experiment, the result for each experimental condition is the mean of 3 replicate wells. When appropriate, the experiments were repeated to establish full concentration-response curves. […] Herein the effects of tested compounds are expressed as pIC50 (the negative log value of the IC50 value) (see Table 3).

Sequence of Human PARP-1 enzyme (P09874 whole entry): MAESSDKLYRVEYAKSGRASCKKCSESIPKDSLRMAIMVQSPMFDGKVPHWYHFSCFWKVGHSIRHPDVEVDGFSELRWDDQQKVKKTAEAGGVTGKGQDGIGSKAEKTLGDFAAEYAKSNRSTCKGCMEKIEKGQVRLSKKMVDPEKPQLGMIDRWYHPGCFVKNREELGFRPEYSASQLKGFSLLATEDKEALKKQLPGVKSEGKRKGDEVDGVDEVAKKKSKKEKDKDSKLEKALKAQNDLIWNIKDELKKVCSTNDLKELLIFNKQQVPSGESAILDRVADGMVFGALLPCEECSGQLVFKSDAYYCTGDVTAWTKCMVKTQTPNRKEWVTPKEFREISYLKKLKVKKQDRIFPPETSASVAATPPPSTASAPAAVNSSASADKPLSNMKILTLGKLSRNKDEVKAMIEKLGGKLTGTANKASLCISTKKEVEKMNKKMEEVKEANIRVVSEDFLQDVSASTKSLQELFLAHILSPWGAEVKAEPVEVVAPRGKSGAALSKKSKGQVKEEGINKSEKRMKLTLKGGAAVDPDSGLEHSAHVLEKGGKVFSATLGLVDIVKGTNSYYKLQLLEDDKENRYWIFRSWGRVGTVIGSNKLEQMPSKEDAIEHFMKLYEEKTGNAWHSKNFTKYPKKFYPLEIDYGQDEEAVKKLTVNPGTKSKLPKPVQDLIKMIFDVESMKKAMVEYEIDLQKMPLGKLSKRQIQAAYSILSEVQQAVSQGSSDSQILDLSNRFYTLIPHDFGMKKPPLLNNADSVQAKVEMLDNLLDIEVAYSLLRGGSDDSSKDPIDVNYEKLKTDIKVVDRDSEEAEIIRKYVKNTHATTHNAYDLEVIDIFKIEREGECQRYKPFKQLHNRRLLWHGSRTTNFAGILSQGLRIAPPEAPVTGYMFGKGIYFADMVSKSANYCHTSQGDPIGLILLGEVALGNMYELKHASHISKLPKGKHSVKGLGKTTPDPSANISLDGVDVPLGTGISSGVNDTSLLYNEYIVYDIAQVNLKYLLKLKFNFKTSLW

SMILES | in vitro SPA assay PARP-1 pIC50 (Human PARP-1 enzyme) | in vitro SPA assay TANK-2 pIC50 (TANK-2 enzyme) | IC50 [1] | IC50 (Human PARP-1 enzyme; read-out: in vitro SPA assay PARP-1 pIC50 (converted)) | IC50 (TANK-2 enzyme; read-out: in vitro SPA assay TANK-2 pIC50 (converted))
COc1cccc(CC(C)(C#N)c2ccc3c4c(c(=O)[nH]c3c2)CCCC4)c1 (stereo not drawn) [Co. No. 11] | 7.06 | 7.45 | 155 nM |  | 
C[C@](C#N)(Cc1ccccc1)c1ccc2c3c(c(=O)[nH]c2c1)CCCC3 (single isomer, unassigned) [Co. No. 3] | 7.26 | 7.48 | 158 nM |  | 
CC(C#N)(Cc1cccc(OC(F)(F)F)c1)c1ccc2c3c(c(=O)[nH]c2c1)CCCC3 (stereo not drawn) [Co. No. 10] | 6.66 | 7.23 | 186 nM |  | 
CC(C#N)(Cc1cccc(CN)c1)c1ccc2c3c(c(=O)[nH]c2c1)CCCC3 (stereo not drawn) [Co. No. 16] | 6.10 | 7.42 | 417 nM |  | 
C[C@@](C#N)(Cc1ccccc1)c1ccc2c3c(c(=O)[nH]c2c1)CCCC3 (single isomer, unassigned) [Co. No. 2] | 7.33 | 7.43 | > 10000 nM |  | 
Cn1nc(CC(C)(C#N)c2ccc3c4c(c(=O)[nH]c3c2)CCCC4)c2ccccc21 (stereo not drawn) [Co. No. 12] | 7.34 | 7.37 | 178 nM |  | 
CN(Cc1ccc(C#N)cc1)CC(C)(C#N)c1ccc2c3c(c(=O)[nH]c2c1)CCCC3 (stereo not drawn) [Co. No. 19] |  | 7.19 | 589 nM |  | 
Cn1c(CC(C)(C#N)c2ccc3c4c(c(=O)[nH]c3c2)CCCC4)nc2ccccc21 (stereo not drawn) [Co. No. 13] | 7.38 | 7.37 | 269 nM |  | 
CN(CC(C)(C#N)c1ccc2c3c(c(=O)[nH]c2c1)CCCC3)C(=O)c1ccccc1 (stereo not drawn) [Co. No. 18] |  |  | > 10000 nM |  | 
C[C@](C#N)(Cc1cccc(F)c1)c1ccc2c3c(c(=O)[nH]c2c1)CCCC3 (single isomer, unassigned) [Co. No. 5b] | 7.44 | 7.47 | 97.7 nM |  | 
C[C@@](C#N)(Cc1cccc(F)c1)c1ccc2c3c(c(=O)[nH]c2c1)CCCC3 (single isomer, unassigned) [Co. No. 5a] | 7.80 | 7.40 | > 10000 nM |  | 
CC(C#N)(Cc1cc(Cl)nc(Cl)c1)c1ccc2c3c(c(=O)[nH]c2c1)CCCC3 (stereo not drawn) [Co. No. 9] | 7.20 | 6.35 | 158 nM |  | 
CC(C#N)(Cc1cccc(CO)c1)c1ccc2c3c(c(=O)[nH]c2c1)CCCC3 (stereo not drawn) [Co. No. 15] | 7.48 | 7.39 | 229 nM |  | 
COC(=O)c1cccc(CC(C)(C#N)c2ccc3c4c(c(=O)[nH]c3c2)CCCC4)c1 (stereo not drawn) [Co. No. 14] |  |  | 105 nM | 97.7 nM | 63.1 nM
